How the values were obtained:
[1] = tested on: 60 to 80 years old subjects (Impaired Elderly and Healthy Elderly); test: Bond-Lader Visual Analogue Scales (BL-VAS) in 60 to 80 years old subjects, interim analysis; type: in vivo, human; settings: low dose (100 mcg); at 45 min
Method: (§1) The study is conducted according to a double-blind, placebo-controlled, four-period cross-over design. Forty healthy subjects, both male and female within an age range of 60 to 80 years are planned to be included in the study in 2 groups: 1) 20 subjects with a memory performance between 1-2 Standard Deviation below the average for their age, gender, and educated level (Impaired Elderly) and 2) 20 subjects with age (±3 years), gender, and educational level matched (in order to speed up the study matching was stopped after the interim analysis) with an average memory performance between 0.5 Standard Deviation below and 0.5 Standard Deviation above from normative values (Healthy Elderly). Classification in terms of impaired or healthy elderly will be determined by a one-off testing of memory performance using the Rey Verbal Learning Task (Rey A; L'examen psychologique dans les cas d'encephalopathy traumatique 1958 Paris; Presses Universitaire de France; or Van der Elst et al; J Int Neuropsychol Soc 2005, 11 (3), pp 290-302) according to fully standardized procedures as applied in The Maastricht Aging Study (Jolles et al; Maastricht Aging Study; determinants of cognitive aging; Maastricht, The Netherlands, Neuropsych Publishers 1995). […]

[2] = tested on: 60 to 80 years old subjects (Impaired Elderly and Healthy Elderly); test: Spatial Memory Task and Stroop task in 60 to 80 years old subjects, interim analysis; type: in vivo, human; settings: 100, 250, 1000 mcg
Method: as §1

[3] = tested on: xylazine/ketamine induced α2-adrenergic receptor-mediated anesthesia; test: xylazine/ketamine induced α2-adrenergic receptor-mediated anesthesia test (emetic potential); type: in vivo; settings: dose of 3.0 mg/kg
From the text: Since emesis is a typical side-effect of phosphodiesterase 4 inhibitors the emetic potential of roflumilast and rolipram was investigated in parallel using the xylazine/ketamine induced α2-adrenergic receptor-mediated anesthesia test. The results confirmed that the two phosphodiesterase 4 inhibitors have different effects on emesis.

In the case of `O=C(Nc1c(Cl)cncc1Cl)c1ccc(OC(F)F)c(OCC2CC2)c1` [roflumilast, N-(3,5-dichloropyridin-4-yl)-3-cyclopropylmethoxy-4-difluoromethoxybenzamide], the “(subjective) alertness in comparison with placebo, based on BL-VAS scores” value [1] is reported as “significantly higher”, the “difference between placebo and drug treatment in the Spatial Memory Task and Stroop task” value [2] is reported as “No statistically significant differences” and the emetic potential [3] is reported as “tendency towards emetic potential”.

Source: patent US10357486B2, “Treatment of cognitive impairment with PDE4 inhibitor” (Universiteit Maastricht, priority 2013, dated 2019)
